Assays:
[1] = test system: blackgrass; assay: Test Example 5: herbicidal effect by foliage application, plastic box (Table 20, symbol J); format: in vivo, blackgrass (Alopecurus myosuroides); conditions: foliage application, 320 g/ha
Procedure, shortened: (§1)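 Post-emergence foliar test in sterilized diluvial soil. Compound applied as water-diluted emulsion at a predetermined rate to 14-day-old plants; evaluation at three weeks.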

[2] = test system: Japanese bulrush; assay: Test Example 1: herbicidal activity, application before weed generation under submerged conditions (Table 16, symbol B); format: in vivo, Japanese bulrush (Schoenoplectus juncoides)
Procedure, shortened: (§2)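 Emulsion formulation, water-diluted to set dose, was put onto the flooded surface (4 cm depth, alluvial soil) the same day weeds were sown and 2.5-leaf rice transplanted. After 3 weeks at 25-30 °C under glass, each species was rated 0 (≤5% kill) to 5 (≥90% kill).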

[3] = test system: false cleavers; assay: Test Example 5: herbicidal effect by foliage application, plastic box (Table 20, symbol Q); format: in vivo, false cleavers (Galium spurium); conditions: foliage application, 320 g/ha
Procedure, shortened: as §1

[4] = test system: windgrass; assay: Test Example 4: herbicidal effect by soil treatment (Table 19, symbol L); format: in vivo, windgrass (Apera spica-venti); conditions: amount of applied herbicide 320 g/ha
Procedure, shortened: (§3)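 Emulsion of test compound, water-diluted to predetermined amount, sprayed on soil after sowing (seed depth ~1.5 cm, sterilized diluvial soil). Greenhouse, 25–30° C. Effect graded at three weeks post-spray.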

[5] = test system: southern crabgrass; assay: Test Example 4: herbicidal effect by soil treatment (Table 19, symbol F); format: in vivo, southern crabgrass (Digitaria ciliaris); conditions: amount of applied herbicide 320 g/ha
Procedure, shortened: as §3

[6] = test system: barnyard grass; assay: Test Example 5: herbicidal effect by foliage application, plastic box (Table 20, symbol H); format: in vivo, barnyard grass (Echinochloa crus-galli); conditions: foliage application, 320 g/ha
Procedure, shortened: as §1

[7] = test system: persian speedwell; assay: Test Example 4: herbicidal effect by soil treatment (Table 19, symbol R); format: in vivo, Persian speedwell (Veronica persica); conditions: amount of applied herbicide 320 g/ha
Procedure, shortened: as §3

[8] = test system: rice flat sedge; assay: Test Example 3: herbicidal effect by foliage application, Wagner pot (Table 18, symbol E); format: in vivo, rice flat sedge (Cyperus iria)
Procedure, shortened: (§4)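 Plants were sown in alluvial soil held under 0.1–0.5 cm standing water and grown 14 days in a greenhouse at 25–30 °C. An emulsifiable formulation, water-diluted to the set dose, was then sprayed onto the foliage, and effects were scored three weeks later using previously defined criteria.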

[9] = test system: velvetleaf; assay: Test Example 5: herbicidal effect by foliage application, plastic box (Table 20, symbol M); format: in vivo, velvetleaf (Abutilon theophrasti); conditions: foliage application, 320 g/ha
Procedure, shortened: as §1

[10] = test system: lambsquarters; assay: Test Example 5: herbicidal effect by foliage application, plastic box (Table 20, symbol O); format: in vivo, lambsquarters (Chenopodium album); conditions: foliage application, 320 g/ha
Procedure, shortened: as §1

[11] = test system: blackgrass; assay: Test Example 4: herbicidal effect by soil treatment (Table 19, symbol J); format: in vivo, blackgrass (Alopecurus myosuroides); conditions: amount of applied herbicide 320 g/ha
Procedure, shortened: as §3

[12] = test system: Chinese sprangletop; assay: Test Example 3: herbicidal effect by foliage application, Wagner pot (Table 18, symbol D); format: in vivo, chinese sprangletop (Leptochloa chinensis)
Procedure, shortened: as §4

[13] = test system: redroot pigweed; assay: Test Example 4: herbicidal effect by soil treatment (Table 19, symbol N); format: in vivo, redroot pigweed (Amaranthus retroflexus); conditions: amount of applied herbicide 320 g/ha
Procedure, shortened: as §3

[14] = test system: barnyard grass; assay: Test Example 4: herbicidal effect by soil treatment (Table 19, symbol H); format: in vivo, barnyard grass (Echinochloa crus-galli); conditions: amount of applied herbicide 320 g/ha
Procedure, shortened: as §3

[15] = test system: late watergrass; assay: Test Example 1: herbicidal activity, application before weed generation under submerged conditions (Table 16, symbol A); format: in vivo, late watergrass (Echinochloa oryzicola)
Procedure, shortened: as §2

[16] = test system: green foxtail; assay: Test Example 5: herbicidal effect by foliage application, plastic box (Table 20, symbol G); format: in vivo, green foxtail (Setaria viridis); conditions: foliage application, 320 g/ha
Procedure, shortened: as §1

[17] = test system: green foxtail; assay: Test Example 4: herbicidal effect by soil treatment (Table 19, symbol G); format: in vivo, green foxtail (Setaria viridis); conditions: amount of applied herbicide 320 g/ha
Procedure, shortened: as §3

[18] = test system: Italian ryegrass; assay: Test Example 5: herbicidal effect by foliage application, plastic box (Table 20, symbol K); format: in vivo, Italian ryegrass (Lolium multiflorum); conditions: foliage application, 320 g/ha
Procedure, shortened: as §1

[19] = test system: redroot pigweed; assay: Test Example 5: herbicidal effect by foliage application, plastic box (Table 20, symbol N); format: in vivo, redroot pigweed (Amaranthus retroflexus); conditions: foliage application, 320 g/ha
Procedure, shortened: as §1

[20] = test system: chickweed; assay: Test Example 5: herbicidal effect by foliage application, plastic box (Table 20, symbol P); format: in vivo, common chickweed (Stellaria media); conditions: foliage application, 320 g/ha
Procedure, shortened: as §1

[21] = test system: southern crabgrass; assay: Test Example 5: herbicidal effect by foliage application, plastic box (Table 20, symbol F); format: in vivo, southern crabgrass (Digitaria ciliaris); conditions: foliage application, 320 g/ha
Procedure, shortened: as §1

[22] = test system: lambsquarters; assay: Test Example 4: herbicidal effect by soil treatment (Table 19, symbol O); format: in vivo, lambsquarters (Chenopodium album); conditions: amount of applied herbicide 320 g/ha
Procedure, shortened: as §3

[23] = test system: persian speedwell; assay: Test Example 5: herbicidal effect by foliage application, plastic box (Table 20, symbol R); format: in vivo, Persian speedwell (Veronica persica); conditions: foliage application, 320 g/ha
Procedure, shortened: as §1

[24] = test system: velvetleaf; assay: Test Example 4: herbicidal effect by soil treatment (Table 19, symbol M); format: in vivo, velvetleaf (Abutilon theophrasti); conditions: amount of applied herbicide 320 g/ha
Procedure, shortened: as §3

[25] = test system: wild oat; assay: Test Example 5: herbicidal effect by foliage application, plastic box (Table 20, symbol I); format: in vivo, wild oat (Avena fatua); conditions: foliage application, 320 g/ha
Procedure, shortened: as §1

[26] = test system: windgrass; assay: Test Example 5: herbicidal effect by foliage application, plastic box (Table 20, symbol L); format: in vivo, windgrass (Apera spica-venti); conditions: foliage application, 320 g/ha
Procedure, shortened: as §1

[27] = test system: chickweed; assay: Test Example 4: herbicidal effect by soil treatment (Table 19, symbol P); format: in vivo, common chickweed (Stellaria media); conditions: amount of applied herbicide 320 g/ha
Procedure, shortened: as §3

[28] = test system: wild oat; assay: Test Example 4: herbicidal effect by soil treatment (Table 19, symbol I); format: in vivo, wild oat (Avena fatua); conditions: amount of applied herbicide 320 g/ha
Procedure, shortened: as §3

[29] = test system: Italian ryegrass; assay: Test Example 4: herbicidal effect by soil treatment (Table 19, symbol K); format: in vivo, Italian ryegrass (Lolium multiflorum); conditions: amount of applied herbicide 320 g/ha
Procedure, shortened: as §3

[30] = test system: barnyard grass; assay: Test Example 3: herbicidal effect by foliage application, Wagner pot (Table 18, symbol H); format: in vivo, barnyard grass (Echinochloa crus-galli)
Procedure, shortened: as §4

[31] = test system: oval-leafed pondweed; assay: Test Example 1: herbicidal activity, application before weed generation under submerged conditions (Table 16, symbol C); format: in vivo, oval-leafed pondweed (Monochoria vaginalis)
Procedure, shortened: as §2

[32] = evaluated three weeks after application
[33] = amount of applied herbicide 320 g/ha

SMILES: CCCC(=O)Oc1c(C)nn(C)c(=O)c1-c1c(-c2ccc(OC)c(F)c2)sc2ccc(Cl)cc12 [2-118]
- herbicidal effect on J: blackgrass [1, 32]: 0 (Herbicidal rate of 5% or less (almost no effect))
- Herbicidal effect on B: Japanese bulrush (grade 0-5) ([2]; 320 g/ha applied herbicide): 3 (Herbicidal rate of 40% or more and less than 70%)
- herbicidal effect on Q: false cleavers [3, 32]: 1 (Herbicidal rate of 5% or more and less than 20%)
- L: windgrass, herbicidal effect rating [4]: 0 (Herbicidal rate of 5% or less (almost no effect))
- F: southern crabgrass, herbicidal effect rating [5]: 0 (Herbicidal rate of 5% or less (almost no effect))
- herbicidal effect on H: barnyard grass [6, 32]: 0 (Herbicidal rate of 5% or less (almost no effect))
- R: persian speedwell, herbicidal effect rating [7]: 5 (Herbicidal rate of 90% or more (almost completely withered))
- herbicidal effect on E: rice flat sedge [8, 33]: 0 (Herbicidal rate of 5% or less (almost no effect))
- herbicidal effect on M: velvetleaf [9, 32]: 3 (Herbicidal rate of 40% or more and less than 70%)
- herbicidal effect on O: lambsquarters [10, 32]: 1 (Herbicidal rate of 5% or more and less than 20%)
- J: blackgrass, herbicidal effect rating [11]: 0 (Herbicidal rate of 5% or less (almost no effect))
- herbicidal effect on D: Chinese sprangletop [12, 33]: 0 (Herbicidal rate of 5% or less (almost no effect))
- N: redroot pigweed, herbicidal effect rating [13]: 0 (Herbicidal rate of 5% or less (almost no effect))
- H: barnyard grass, herbicidal effect rating [14]: 0 (Herbicidal rate of 5% or less (almost no effect))
- Herbicidal effect on A: late watergrass (grade 0-5) ([15]; 320 g/ha applied herbicide): 4 (Herbicidal rate of 70% or more and less than 90%)
- herbicidal effect on G: green foxtail [16, 32]: 0 (Herbicidal rate of 5% or less (almost no effect))
- G: green foxtail, herbicidal effect rating [17]: 0 (Herbicidal rate of 5% or less (almost no effect))
- herbicidal effect on K: Italian ryegrass [18, 32]: 0 (Herbicidal rate of 5% or less (almost no effect))
- herbicidal effect on N: redroot pigweed [19, 32]: 0 (Herbicidal rate of 5% or less (almost no effect))
- herbicidal effect on P: chickweed [20, 32]: 5 (Herbicidal rate of 90% or more (almost completely withered))
- herbicidal effect on F: southern crabgrass [21, 32]: 0 (Herbicidal rate of 5% or less (almost no effect))
- O: lambsquarters, herbicidal effect rating [22]: 2 (Herbicidal rate of 20% or more and less than 40%)
- herbicidal effect on R: persian speedwell [23, 32]: 5 (Herbicidal rate of 90% or more (almost completely withered))
- M: velvetleaf, herbicidal effect rating [24]: 1 (Herbicidal rate of 5% or more and less than 20%)
- herbicidal effect on I: wild oat [25, 32]: 0 (Herbicidal rate of 5% or less (almost no effect))
- herbicidal effect on L: windgrass [26, 32]: 0 (Herbicidal rate of 5% or less (almost no effect))
- P: chickweed, herbicidal effect rating [27]: 4 (Herbicidal rate of 70% or more and less than 90%)
- I: wild oat, herbicidal effect rating [28]: 0 (Herbicidal rate of 5% or less (almost no effect))
- K: Italian ryegrass, herbicidal effect rating [29]: 0 (Herbicidal rate of 5% or less (almost no effect))
- herbicidal effect on H: barnyard grass [30, 33]: 2 (Herbicidal rate of 20% or more and less than 40%)
- Herbicidal effect on C: oval-leafed pondweed (grade 0-5) ([31]; 320 g/ha applied herbicide): 0 (Herbicidal rate of 5% or less (almost no effect))

SMILES: CCOc1ccccc1-c1sc2cc(OCc3ccccc3)ccc2c1-c1c(O)c(C)nn(C)c1=O [3-119]
- J: blackgrass, herbicidal effect grade ([1]; three weeks after application): 0 (Herbicidal rate of 5% or less (almost no effect))
- Herbicidal effect, B: Japanese bulrush [2, 33]: 3 (Herbicidal rate of 40% or more and less than 70%)
- Q: false cleavers, herbicidal effect grade ([3]; three weeks after application): 5 (Herbicidal rate of 90% or more (almost completely withered))
- L: windgrass, herbicidal effect grade [4]: 0 (Herbicidal rate of 5% or less (almost no effect))
- F: southern crabgrass, herbicidal effect grade [5]: 4 (Herbicidal rate of 70% or more and less than 90%)
- H: barnyard grass, herbicidal effect grade ([6]; three weeks after application): 3 (Herbicidal rate of 40% or more and less than 70%)
- R: persian speedwell, herbicidal effect grade [7]: 5 (Herbicidal rate of 90% or more (almost completely withered))
- herbicidal effect on rice flat sedge (E) ([8]; 320 g/ha): 5 (Herbicidal rate of 90% or more (almost completely withered))
- M: velvetleaf, herbicidal effect grade ([9]; three weeks after application): 4 (Herbicidal rate of 70% or more and less than 90%)
- O: lambsquarters, herbicidal effect grade ([10]; three weeks after application): 5 (Herbicidal rate of 90% or more (almost completely withered))
- J: blackgrass, herbicidal effect grade [11]: 0 (Herbicidal rate of 5% or less (almost no effect))
- herbicidal effect on Chinese sprangletop (D) ([12]; 320 g/ha): 4 (Herbicidal rate of 70% or more and less than 90%)
- N: redroot pigweed, herbicidal effect grade [13]: 3 (Herbicidal rate of 40% or more and less than 70%)
- H: barnyard grass, herbicidal effect grade [14]: 0 (Herbicidal rate of 5% or less (almost no effect))
- Herbicidal effect, A: late watergrass [15, 33]: 3 (Herbicidal rate of 40% or more and less than 70%)
- G: green foxtail, herbicidal effect grade ([16]; three weeks after application): 5 (Herbicidal rate of 90% or more (almost completely withered))
- G: green foxtail, herbicidal effect grade [17]: 3 (Herbicidal rate of 40% or more and less than 70%)
- K: Italian ryegrass, herbicidal effect grade ([18]; three weeks after application): 1 (Herbicidal rate of 5% or more and less than 20%)
- N: redroot pigweed, herbicidal effect grade ([19]; three weeks after application): 5 (Herbicidal rate of 90% or more (almost completely withered))
- P: chickweed, herbicidal effect grade ([20]; three weeks after application): 5 (Herbicidal rate of 90% or more (almost completely withered))
- F: southern crabgrass, herbicidal effect grade ([21]; three weeks after application): 5 (Herbicidal rate of 90% or more (almost completely withered))
- O: lambsquarters, herbicidal effect grade [22]: 3 (Herbicidal rate of 40% or more and less than 70%)
- R: persian speedwell, herbicidal effect grade ([23]; three weeks after application): 5 (Herbicidal rate of 90% or more (almost completely withered))
- M: velvetleaf, herbicidal effect grade [24]: 0 (Herbicidal rate of 5% or less (almost no effect))
- I: wild oat, herbicidal effect grade ([25]; three weeks after application): 1 (Herbicidal rate of 5% or more and less than 20%)
- L: windgrass, herbicidal effect grade ([26]; three weeks after application): 4 (Herbicidal rate of 70% or more and less than 90%)
- P: chickweed, herbicidal effect grade [27]: 0 (Herbicidal rate of 5% or less (almost no effect))
- I: wild oat, herbicidal effect grade [28]: 0 (Herbicidal rate of 5% or less (almost no effect))
- K: Italian ryegrass, herbicidal effect grade [29]: 0 (Herbicidal rate of 5% or less (almost no effect))
- herbicidal effect on barnyard grass (H) ([30]; 320 g/ha): 4 (Herbicidal rate of 70% or more and less than 90%)
- Herbicidal effect, C: oval-leafed pondweed [31, 33]: 3 (Herbicidal rate of 40% or more and less than 70%)

Source: patent US20230085307A1, “PYRIDAZINONE COMPOUND AND HERBICIDE” (NISSAN CHEMICAL CORPORATION, priority 2019, published 2023)
